Structures can show the parent of a compound that is named as a salt.

This assay has as its system H3K9me2 in MDA-MB-231 cells. Kind of assay: MDA-MB-231 H3K9me2 in-cell western assay. Type of assay: cell-based. Particulars: Homo sapiens, read-out: EHMT2 ICW (IC50 μM). The source says:
MDA-MB-231 cell line was purchased from ATCC (Manassas, Va., USA). RPMI/Glutamax medium, Penicillin-Streptomycin, Heat Inactivated Fetal Bovine Serum, and D-PBS were purchased from Life Technologies (Grand Island, N.Y., USA). Odyssey blocking buffer, 800CW goat anti-mouse IgG (H+L) antibody, and Licor Odyssey Infrared Scanner were purchased from Licor Biosciences, Lincoln, Nebr., USA. H3K9me2 mouse monoclonal antibody (Cat #1220) was purchased from Abcam (Cambridge, Mass., USA). 16% Paraformaldehyde was purchased from Electron Microscopy Sciences, Hatfield, Pa., USA). MDA-MB-231 cells were maintained in complete growth medium (RPMI supplemented with 10% v/v heat inactivated fetal bovine serum) and cultured at 37° C. under 5% CO2. UNC0638 was purchased from Sigma-Aldrich (St. Louis, Mo., USA).
General Procedure for MDA-MB-231 HEK9me2 In-Cell Western Assay.
Compound (100 nL) was added directly to 384-well cell plate. MDA-MB-231 cells (ATCC) were seeded in assay medium (RPMI/Glutamax supplemented with 10% v/v heat inactivated fetal bovine serum and 1% Penicillin/Streptomycin, Life Technologies) at a concentration of 3,000 cells per well to a Poly-D-Lysine coated 384-well cell culture plate with 50 μL per well. Plates were incubated at 37° C., 5% CO2 for 48 hours (BD Biosciences 356697). Plates were incubated at room temperature for 30 minutes and then incubated at 37° C., 5% CO2 for additional 48 hours. After the incubation, 50 μL per well of 8% paraformaldehyde (Electron Microscopy Sciences) in PBS was added to the plates and incubated at room temperature for 20 minutes. Plates were transferred to a Biotek 406 plate washer and washed 2 times with 100 μL per well of wash buffer (1×PBS containing 0.3% Triton X-100 (v/v)). Next, 60 μL per well of Odyssey blocking buffer (Licor Biosciences) was added to each plate and incubated for 1 hour at room temperature. Blocking buffer was removed and 20 μL of monoclonal primary antibody α-H3K9me2 (Abcam) diluted 1:800 in Odyssey buffer with 0.1% Tween 20 (v/v) were added and plates were incubated overnight (16 hours) at 4° C. Plates were washed 5 times with 100 μL per well of wash buffer. Next 20 μL per well of secondary antibody was added (1:500 800CW […] anti-mouse IgG (H+L) antibody (Licor Biosciences), 1:1000 DRAQ5 (Cell Signaling Technology) in Odyssey buffer with 0.1% Tween 20 (v/v)) and incubated for 1 hour at room temperature. The plates were washed 5 times with 100 μL per well wash buffer then 2 times with 100 μL per well of water. Plates were allowed to dry at room temperature then imaged on a Licor Odyssey Infrared Scanner (Licor Biosciences) which measured integrated intensity at 700 nm and 800 nm wavelengths. Both 700 and 800 channels were scanned.
% Inhibition Calculation.
First, the ratio for each well was determined by
Each plate included fourteen control wells of DMSO only treatment (Minimum Inhibition) as well as fourteen control wells (background wells) for maximum inhibition treated with control compound UNC0638 (Background wells).
The average of the ratio values for each well was calculated and used to determine the percent inhibition for each test well in the plate. Control compound was serially diluted three-fold in DMSO for a total of 10 test concentrations beginning at 1 μM. Percent inhibition was calculated as: […]
IC50 curves were generated using triplicate wells per concentration of compound. The IC50 is the concentration of compound at which measured methylation is inhibited by 50% as interpolated from the dose response curves. IC50 values were calculated using a non-linear regression (variable slope-four parameter fit model) with by the following formula
where Top is fixed at 100% and Bottom is fixed to 0%, [I]=concentration of inhibitor, IC50=half maximal inhibitory concentration and n=Hill Slope.
Turning to `CNc1cc(C)nc(Nc2ccc(OC)c(-c3cn4c(n3)CN(C)CC4)c2)n1` [Compound 6], the IC50 is over 10 µM. On to `CNc1cc(C)nc(Nc2ccc(OC)c(-c3cn4c(n3)CNCC4)c2)n1` [Compound 7], for which the IC50 lay within 1 to 10 µM. Turning to `CNc1cc(C)nc(Nc2ccc(OC)c(-c3nc4n(n3)CCNC4)c2)n1` [Compound 8, 2-N-(4-methoxy-3-[4H,5H,6H,7H-[1,2,4]triazolo[1,5-a]pyrazin-2-yl]phenyl)-4-N,6-dimethylpyrimidine-2,4-diamine hydrochloride], the IC50 is over 10 µM. The same measure for `CNc1cc(C)nc(Nc2ccc(OC)c(-c3nc4n(n3)CCN(C)C4)c2)n1` [Compound 9]: over 10 µM; for `CNc1cc(C)nc(Nc2ccc(OC)c(-n3ncc4c3CCN(C)C4)c2)n1` [Compound 10]: 0.1 to 1 µM; for `CNc1cc(C)nc(Nc2ccc(OC)c(-c3nnc(C)[nH]3)c2)n1` [Compound 11]: over 10 µM.

For `CNc1cc(C)nc(Nc2ccc(OC)c(-c3cn[nH]c3)c2)n1` [Compound 12, 2-N-[4-methoxy-3-(1H-pyrazol-4-yl)phenyl]-4-N,6-dimethylpyrimidine-2,4-diamine], the IC50 was over 10 µM.

As for `CNc1cc(C)nc(Nc2ccc(OC)c(-n3cc4ccccc4n3)c2)n1` [Compound 146], the IC50 lay in the range of 1 to 10 µM. The same measure for `CNc1cc(C)nc(Nc2ccc(OC)c(-n3cc4cc(Br)ccc4n3)c2)n1` [Compound 148]: 1 to 10 µM; for `CNc1cc(C)nc(Nc2ccc(OC)c(-n3cc4cncc(C)c4n3)c2)n1` [Compound 151]: 0.1 to 1 µM. The same measure for `CNc1cc(C)nc(Nc2ccc(OC)c(-c3ccc4nc(C)[nH]c4c3)c2)n1` [Compound 155]: over 10 µM. The same measure for `CNc1cc(C)nc(Nc2ccc(OC)c(-c3ccc4cc(C)[nH]c4c3)c2)n1` [Compound 156]: 1 to 10 µM. As to `CNc1cc(C)nc(Nc2ccc(OC)c(-c3cc4ccncc4[nH]3)c2)n1` [Compound 157, N2-(4-methoxy-3-(1H-pyrrolo[2,3-c]pyridin-2-yl)phenyl)-N4,6-dimethylpyrimidine-2,4-diamine], the IC50 lay within 0.1 to 1 µM. The same measure for `CNc1cc(C)nc(Nc2ccc(OC)c(-c3cc4cnccc4n3C)c2)n1` [Compound 158]: 0.1 to 1 µM; for `CNCc1cn(-c2cc(Nc3nc(C)cc(NC)n3)ccc2OC)nn1` [Compound 159, N2-(4-methoxy-3-(4-((methylamino)methyl)-1H-1,2,3-triazol-1-yl)phenyl)-N4,6-dimethylpyrimidine-2,4-diamine]: 0.1 to 1 µM.

Regarding `CNc1cc(C)nc(Nc2ccc(OC)c(-n3cc(CN(C)C)c(C)n3)c2)n1` [Compound 160], the IC50 was in the range of 0.1 to 1 µM. The same measure for `CNc1nc2cc(-n3cc(CN(C)C)nn3)c(OC)cc2n1C` [Compound 163]: 1 to 10 µM; for `CNc1cc(C)nc(Nc2ccc(OC)c(-n3cc(C(C)NC)nn3)c2)n1` (stereo not drawn) [Compound 164]: 0.1 to 1 µM; for `CNc1cc(C)nc(Nc2ccc(OC)c(-n3cc(C(NC)C(F)(F)F)nn3)c2)n1` (stereo not drawn) [Compound 165]: over 10 µM. The same measure for `CNc1cc(C)nc(Nc2ccc(OC)c(-n3cc(C(C)(C)NC)nn3)c2)n1` [Compound 166]: over 10 µM; for `CNc1ccnc(Nc2ccc(OC)c(-n3cnc(CN(C)C)c3)c2)n1` [Compound 170]: 0.1 to 1 µM. The same measure for `CNc1ccnc(Nc2ccc(OC)c(-n3cc(CN(C)C)nn3)c2)n1` [Compound 171]: 0.1 to 1 µM; for `CCNCc1cn(-c2cc(Nc3nccc(NC)n3)ccc2OC)nn1` [Compound 172]: 1 to 10 µM.

Consider `CNc1ccnc(Nc2ccc(OC)c(-n3cc(CNCC4CC4)nn3)c2)n1` [Compound 173], for which the IC50 lay in the range of 1 to 10 µM. The same measure for `CNc1ccnc(Nc2ccc(OC)c(-c3cc4[nH]ncc4cn3)c2)n1` [Compound 174]: 1 to 10 µM; for `CNc1ccnc(Nc2ccc(OC)c(-c3cc4[nH]ccc4cn3)c2)n1` [Compound 175, N2-(4-methoxy-3-(1H-pyrrolo[3,2-c]pyridin-6-yl)phenyl)-N4-methylpyrimidine-2,4-diamine]: 0.1 to 1 µM; for `CNc1ccnc(Nc2ccc(OC)c(-n3cc(C4CC4)nn3)c2)n1` [Compound 176]: 1 to 10 µM. As for `CNc1ccnc(Nc2ccc(OC)c(-n3cc(C4COC4)nn3)c2)n1` [Compound 177], the IC50 is over 10 µM.

Turning to `CNc1ccnc(Nc2ccc(OC)c(-c3ccc4cc[nH]c4c3)c2)n1` [Compound 178], the IC50 was over 10 µM.

In the case of `CNCc1cnn(-c2cc3nc(NC)n(C)c3cc2OC)c1` [Compound 179], the IC50 lay in the range of 1 to 10 µM. The same measure for `CNCc1cnn(-c2cc(Nc3nccc(NC)n3)ccc2OC)c1` [Compound 181, N2-(4-methoxy-3-(4-((methylamino)methyl)-1H-pyrazol-1-yl)phenyl)-N4-methylpyrimidine-2,4-diamine]: 0.1 to 1 µM. Consider `CNCc1cnn(-c2cc3nc(NC)cc(C4CCOCC4)c3cc2OC)c1` [Compound 184], for which the IC50 was in the range of 1 to 10 µM. As for `CCNCc1cnn(-c2cc(Nc3nccc(NC)n3)ccc2OC)c1` [Compound 185], the IC50 was in the range of 1 to 10 µM. The same measure for `CNCc1cnn(-c2cc3c(cc2OC)C2(CCC2)C(N)=N3)c1` [Compound 186]: 0.1 to 1 µM.

As for `CNCc1cnn(-c2cc3c(cc2OC)C2(CCC2)C(NC)=N3)c1` [Compound 187], the IC50 is 0.1 to 1 µM. The same measure for `CNc1cc(C)nc(Nc2cnc(OC)c(-n3cc(C4CCCN4)cn3)c2)n1` (stereo not drawn) [Compound 188]: 1 to 10 µM; for `CNc1ccnc(Nc2ccc(OC)c(-n3cc(CNC4CCC4)nn3)c2)n1` [Compound 191]: over 10 µM. The same measure for `CNC1=Nc2cc(-n3cc([C@H]4CCCN4)nn3)c(OC)cc2C12CCC2` [Compound 192]: 0.1 to 1 µM. The same measure for `COc1cc2c(cc1-n1cc([C@H]3CCCN3)nn1)N=C(N)C21CCC1` [Compound 193]: 0.1 to 1 µM.

Regarding `COc1cc2c(cc1-n1cc(C3CCCN3)nn1)N=C(N)C21CCC1` (stereo not drawn) [Compound 194], the IC50 was 0.1 to 1 µM.

In the case of `COc1cc2c(cc1-n1cc([C@@H]3CCCN3)nn1)N=C(N)C21CCC1` [Compound 195], the IC50 was in the range of 1 to 10 µM. `CNc1cc(C2CCOCC2)c2cc(OC)c(-n3cc(C4CCCN4)nn3)cc2n1` (stereo not drawn) [Compound 196]: the IC50 fell in the range of 1 to 10 µM. On to `CNc1cc(C)nc(Nc2ccc(OC)c(-c3[nH]c4cnccc4c3F)c2)n1` [Compound 199], for which the IC50 lay within 1 to 10 µM. The same measure for `CNc1cc(C)nc(Nc2ccc(OC)c(-c3[nH]c4cnccc4c3C)c2)n1` [Compound 200, N2-(4-methoxy-3-(3-methyl-1H-pyrrolo[2,3-c]pyridin-2-yl)phenyl)-N4,6-dimethylpyrimidine-2,4-diamine]: under 0.1 µM; for `CNc1cc(C)nc(Nc2ccc(OC)c(-c3cc4ncncc4[nH]3)c2)n1` [Compound 201]: over 10 µM; for `COc1cc2c(cc1-c1cc3ccncc3[nH]1)N=C(N)C21CCC1` [Compound 202]: 1 to 10 µM. The same measure for `CNc1cc(C)nc(Nc2cnc(OC)c(-c3cc4ccncc4[nH]3)c2)n1` [Compound 204]: over 10 µM. The same measure for `COc1cc(NC2CCNCC2)ncc1-c1cc2ccncc2[nH]1` [Compound 205]: over 10 µM; for `CNc1cc(C)nc(Nc2ccc(OC)c(-c3cc4[nH]ccc4cn3)c2)n1` [Compound 206, N2-(4-methoxy-3-(1H-pyrrolo[3,2-c]pyridin-6-yl)phenyl)-N4,6-dimethylpyrimidine-2,4-diamine]: under 0.1 µM; for `CNc1cc(C)nc(Nc2ccc(OC)c(-c3cc4[nH]c(C)cc4cn3)c2)n1` [Compound 207]: 0.1 to 1 µM. For the molecule `COc1cc(NC2CCNCC2)ncc1-c1cc2[nH]ccc2cn1` [Compound 208], the IC50 is over 10 µM.

Source of the values: US20220235065A1 (Epizyme, Inc., priority 2016, published 2022).
